Experimental findings from patent publication US20250257055A1, “TERTIARY AMIDE DERIVATIVES SUBSTITUTED WITH 4-MEMBERED RING STRUCTURE” (Sumitomo Pharma Co., Ltd., priority 2024, published 2025) are described below.

In general, IC50 refers to the midpoint of a concentration-inhibition curve. The term AUC denotes concentration integrated over time. A low value points to low exposure. As a reminder, the clearance is the volume of plasma or blood freed of the substance per unit of time. Low values mean inefficient removal, high ones efficient removal. The half-life is how long it takes for the measured level to halve. A higher half-life goes with slow decline. By Cmax is commonly meant the peak of the concentration-time curve.

In data set [1] the test system is G-401 cells. As to the kind of experiment: Cell proliferation inhibition experiment using G-401 cells. The class given is cell-based. To be noted: Homo sapiens, 72 h, cultured for 3 days, CellTiter-Glo. How it is done: G-401 cells (derived from malignant rhabdoid tumor) were obtained from the American Type Culture Collection (ATCC). G-401 cells were cultured in McCoy's 5A medium containing 10% fetal bovine serum and 1% penicillin/streptomycin under conditions of 37° C. and 5% CO2.
500 cells per well were seeded in a 384-well plate. One day after seeding, Examples 1 to 35 were added so that the final concentration of DMSO was 0.1%, and the cells were cultured for 3 days. After the culture was completed, the cell viability was measured using CellTiter-Glo Luminescent Cell Viability Assay (Promega, G7570).
For orientation: ATP-based viability assays read luminescence as a measure of living cells.

Data set [2] addresses recombinant p300 (Homo sapiens (Human), UniProt Q09472). As to the kind of experiment: HAT activity inhibition experiment (SensoLyte HAT(p300) Assay Kit). The class given is biochemical. Particulars: recombinant p300, histone H3 peptide, acetyl CoA. As for the experimental part: The HAT activity inhibitory ability of HAT inhibitors was evaluated using SensoLyte HAT(p300) Assay Kit (ANASPEC, AS-72172). Specifically, 7.5 μL of the compound of Examples […] diluted with assay buffer was added to 7.5 μL of recombinant p300 solution diluted 10 times with assay buffer, and the mixture was incubated at room temperature for 10 minutes. 7.5 μL of acetyl CoA solution diluted 10 times with assay buffer and 15 μL of histone H3 peptide diluted 10 times with assay buffer were added thereto, and the mixture was incubated at 37° C. for 30 minutes. 37.5 μL of Stop Solution was added to stop the reaction. 75 μL of p300 Developer solution diluted 50 times with assay buffer was added, and the mixture was incubated at room temperature for 30 minutes under light-shielded conditions. The fluorescence at 513 nm when irradiated with 389 nm excitation light was measured using a multiplate reader.

Data set [3] in a line: Membrane permeability test (PAMPA). In kind it is in vitro ADME. How it is done: The membrane permeability of the test compound was tested by parallel artificial membrane permeability assay (PAMPA) as follows. 200 μL of System solution (pION Inc.) containing the test compound and 4 μL of GIT Lipid-0 (pION Inc.) were added to the donor plate. 200 μL of Acceptor Sink Buffer (pION Inc.) was added to the acceptor plate. Both plates were overlapped and incubated at 37° C. for 4 hours, after which the UV of the solutions on the acceptor side and donor side was measured using a UV plate reader (190-500 nm). Compounds with poor UV absorption were measured using LC-MS. The permeability coefficient Pe (10^−6 cm/sec) of the drug was calculated using the following equation.

Data set [4] in a line: Pharmacokinetic study in mice. Particulars: for AUC / clearance / half-life / Vd / Cmax: female, BALB/c (BALB/cAnN CrlCrlj), mouse, plasma; for Vd: read-out: Vdss. In kind it is in vivo. How it is done: The test compound was administered to 7-week-old female BALB/c (BALB/cAnN CrlCrlj) mice intravenously (dosage: 1 mg/kg) in a 50% PEG solution (0.01 mol/L HCl) or orally (dosage: 10 mg/kg) in a 0.5% methylcellulose aqueous solution, and blood was collected at the following times:
Intravenous administration: 5 min, 15 min, 30 min, 1 hr, 2 hr, 4 hr, 6 hr, and 24 hr after administration
Oral administration: 15 min, 30 min, 1 hr, 2 hr, 4 hr, 6 hr, and 24 hr after administration
The collected blood was centrifuged at 3000 rpm×10 min using a refrigerated centrifuge set at 4° C., and the obtained plasma was measured by LC-MS. A calibration curve was prepared from the value (peak ratio) obtained by dividing the peak area of the test substance by the peak area of the internal standard substance in MS and the concentration of the plasma calibration curve sample. The concentration in the sample was calculated from the peak ratio and the calibration curve of each sample.

Setting [5] is: pH 5.0, 37° C., read-out: pH 5.0 Pe.
The mark [6] stands for this setting: pH 7.4, 37° C., read-out: pH 7.4 Pe.

Molecules are shown by their SMILES. Read-outs that look alike come from different tables or passages of the source.

Chain of recombinant p300 (Q09472 whole entry): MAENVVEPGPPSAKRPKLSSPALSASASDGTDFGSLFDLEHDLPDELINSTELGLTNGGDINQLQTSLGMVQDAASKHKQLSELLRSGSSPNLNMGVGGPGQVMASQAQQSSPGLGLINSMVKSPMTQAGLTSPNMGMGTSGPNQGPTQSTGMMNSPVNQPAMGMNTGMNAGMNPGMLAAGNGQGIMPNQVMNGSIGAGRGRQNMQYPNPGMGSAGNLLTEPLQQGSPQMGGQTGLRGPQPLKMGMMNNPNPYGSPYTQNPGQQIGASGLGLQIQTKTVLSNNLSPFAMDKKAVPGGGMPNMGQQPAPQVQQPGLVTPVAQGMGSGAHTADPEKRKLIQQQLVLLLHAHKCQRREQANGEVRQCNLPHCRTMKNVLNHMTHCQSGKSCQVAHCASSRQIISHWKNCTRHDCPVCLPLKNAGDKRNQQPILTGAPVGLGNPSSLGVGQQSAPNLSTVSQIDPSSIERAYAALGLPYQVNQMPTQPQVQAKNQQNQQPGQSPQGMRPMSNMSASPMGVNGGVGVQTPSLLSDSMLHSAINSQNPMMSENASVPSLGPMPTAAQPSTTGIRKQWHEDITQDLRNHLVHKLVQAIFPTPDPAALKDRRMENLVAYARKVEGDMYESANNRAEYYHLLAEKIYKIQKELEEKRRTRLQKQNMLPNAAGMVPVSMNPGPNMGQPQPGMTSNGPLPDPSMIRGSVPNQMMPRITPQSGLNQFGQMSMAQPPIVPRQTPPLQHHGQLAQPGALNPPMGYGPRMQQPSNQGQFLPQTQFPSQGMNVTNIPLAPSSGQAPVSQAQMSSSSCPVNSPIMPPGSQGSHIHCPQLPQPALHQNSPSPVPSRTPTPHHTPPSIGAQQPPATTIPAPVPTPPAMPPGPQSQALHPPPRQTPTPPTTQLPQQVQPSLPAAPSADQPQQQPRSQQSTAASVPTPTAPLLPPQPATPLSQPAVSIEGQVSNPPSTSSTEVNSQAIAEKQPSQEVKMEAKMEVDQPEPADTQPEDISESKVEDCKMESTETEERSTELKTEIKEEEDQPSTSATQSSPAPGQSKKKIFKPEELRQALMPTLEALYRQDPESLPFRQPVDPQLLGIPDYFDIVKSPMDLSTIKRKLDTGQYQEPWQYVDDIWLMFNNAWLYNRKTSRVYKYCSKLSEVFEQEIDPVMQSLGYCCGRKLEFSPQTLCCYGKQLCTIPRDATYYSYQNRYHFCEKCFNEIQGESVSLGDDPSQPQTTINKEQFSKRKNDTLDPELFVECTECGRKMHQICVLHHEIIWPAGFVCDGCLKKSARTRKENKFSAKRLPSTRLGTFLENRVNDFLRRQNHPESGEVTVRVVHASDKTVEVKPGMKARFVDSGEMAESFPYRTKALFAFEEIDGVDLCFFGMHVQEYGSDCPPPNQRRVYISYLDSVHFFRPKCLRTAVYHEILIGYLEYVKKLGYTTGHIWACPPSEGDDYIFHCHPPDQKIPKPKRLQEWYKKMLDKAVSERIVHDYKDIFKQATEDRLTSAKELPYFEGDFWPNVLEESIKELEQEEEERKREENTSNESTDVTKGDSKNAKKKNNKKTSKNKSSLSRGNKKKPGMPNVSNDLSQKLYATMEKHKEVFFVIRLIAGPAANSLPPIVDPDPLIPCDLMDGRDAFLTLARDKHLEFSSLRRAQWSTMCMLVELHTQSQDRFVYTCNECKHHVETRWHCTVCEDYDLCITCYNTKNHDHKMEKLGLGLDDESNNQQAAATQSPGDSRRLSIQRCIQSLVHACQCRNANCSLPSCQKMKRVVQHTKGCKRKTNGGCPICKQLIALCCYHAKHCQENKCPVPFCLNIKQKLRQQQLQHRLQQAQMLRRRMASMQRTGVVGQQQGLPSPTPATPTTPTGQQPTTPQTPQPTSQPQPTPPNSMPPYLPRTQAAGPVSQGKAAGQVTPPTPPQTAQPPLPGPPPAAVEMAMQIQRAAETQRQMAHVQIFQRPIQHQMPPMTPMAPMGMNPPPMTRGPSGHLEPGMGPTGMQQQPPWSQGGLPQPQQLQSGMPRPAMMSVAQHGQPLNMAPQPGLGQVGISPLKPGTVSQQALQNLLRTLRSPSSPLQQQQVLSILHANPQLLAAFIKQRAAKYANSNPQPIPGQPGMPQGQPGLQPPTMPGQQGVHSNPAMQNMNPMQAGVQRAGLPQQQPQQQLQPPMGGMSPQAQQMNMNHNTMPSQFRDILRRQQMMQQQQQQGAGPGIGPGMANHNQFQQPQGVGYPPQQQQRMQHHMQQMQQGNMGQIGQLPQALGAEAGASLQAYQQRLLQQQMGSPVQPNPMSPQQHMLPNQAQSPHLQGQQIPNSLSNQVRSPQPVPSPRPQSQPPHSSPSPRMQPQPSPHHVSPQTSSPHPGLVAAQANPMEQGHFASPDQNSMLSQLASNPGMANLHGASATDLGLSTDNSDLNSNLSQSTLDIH

Turning to `O=C1N[C@]2(CCc3cc(-c4cnn(C5CN(C6COC6)C5)c4)ccc32)C(=O)N1CC(=O)N(Cc1ccc(F)cc1)C1(C(F)(F)F)CC(F)(F)C1` [Example 5, N-[3,3-difluoro-1-(trifluoromethyl)cyclobutyl]-N-[(4-fluorophenyl)methyl]-2-[(1'S)-5′-{1-[1-(oxetan-3-yl)azetidin-3-yl]-1H-pyrazol-4-yl}-2,5-dioxo-2′,3′-dihydrospiro[imidazolidine-4,1′-inden]-1-yl]acetamide], 88 nM corresponded to half-maximal inhibition in data set [1] (IC50). Besides, the IC50 in data set [2] is 6.1 nM. Moreover, in data set [3] (setting [5]), the Papp at 4 h came to 25.4 ×10⁻⁶ cm/s. In data set [3] (setting [6]), the Papp at 4 h was determined as 28.4 ×10⁻⁶ cm/s. In data set [4] (intravenous, 1 mg/kg), the AUC was found to be 875 ng·h/mL, the clearance was determined as 17.6 mL/min/kg, the half-life was 1.75 h and the Vd worked out at 2.1 L/kg. In data set [4] (oral, 10 mg/kg), the AUC was found to be 7300 ng·h/mL, the Cmax turned out to be 3500 ng/mL and the BA was 83.4%.

In data set [1], `O=C1N[C@]2(CCc3cc(-c4cnn(C5CN(C6COC6)C5)c4)ccc32)C(=O)N1CC(=O)N(Cc1ccc(F)cc1)C1(C(F)(F)F)COC1` [Example 1, N-[(4-fluorophenyl)methyl]-2-[(1′S)-5′-{1-[1-(oxetan-3-yl)azetidin-3-yl]-1H-pyrazol-4-yl}-2,5-dioxo-2′,3′-dihydrospiro[imidazolidine-4,1′-inden]-1-yl]-N-[3-(trifluoromethyl)oxetan-3-yl]acetamide] came in with an IC50 of 181 nM. Besides, the IC50 in data set [2] was found to be 16 nM. Further, in data set [3] (setting [5]), the Papp at 4 h is 16.2 ×10⁻⁶ cm/s. Besides, the Papp at 4 h in data set [3] (setting [6]) stood at 20.6 ×10⁻⁶ cm/s. Further, in data set [4] (intravenous, 1 mg/kg), the AUC is 575 ng·h/mL, the clearance was determined as 28.6 mL/min/kg, the half-life is 1.1 h and the Vd was 1.8 L/kg. Also, in data set [4] (oral, 10 mg/kg), the AUC amounted to 4350 ng·h/mL, the Cmax came out at 3770 ng/mL and the BA was found to be 75.7%.

Regarding `CN1CC(N(Cc2ccc(F)cn2)C(=O)CN2C(=O)N[C@]3(C[C@@H](F)c4cc(-c5cnn(C(C)(C)CO)c5)ccc43)C2=O)(C(F)(F)F)C1` [Example 27, 2-{(1′S,3′R)-3′-fluoro-5′-[1-(1-hydroxy-2-methylpropan-2-yl)-1H-pyrazol-4-yl]-2,5-dioxo-2′,3′-dihydrospiro[imidazolidine-4,1′-inden]-1-yl}-N-[(5-fluoropyridin-2-yl)methyl]-N-[1-methyl-3-(trifluoromethyl)azetidin-3-yl]acetamide], the IC50 in data set [1] amounted to 22 nM; in data set [2] it was 6.8 nM. Also, the Papp at 4 h in data set [3] (setting [5]) stood at 0.6 ×10⁻⁶ cm/s; in data set [3] (setting [6]), 3.5 ×10⁻⁶ cm/s.

For `CN1CC(N(Cc2ccc(F)cc2)C(=O)CN2C(=O)N[C@]3(CCc4cc(-c5cnn(C(C)(C)C#N)c5)ccc43)C2=O)(C(F)(F)F)C1` [Example 13, 2-{(1′S)-5′-[1-(2-cyanopropan-2-yl)-1H-pyrazol-4-yl]-2,5-dioxo-2′,3′-dihydrospiro[imidazolidine-4,1′-inden]-1-yl}-N-[(4-fluorophenyl)methyl]-N-[1-methyl-3-(trifluoromethyl)azetidin-3-yl]acetamide], the IC50 came to 20 nM in data set [1] and 5.2 nM in data set [2]. Further, the Papp at 4 h in data set [3] (setting [5]) stood at 26.2 ×10⁻⁶ cm/s; in data set [3] (setting [6]), 26.9 ×10⁻⁶ cm/s.

Take `CN1CCn2ncc(-c3ccc4c(c3)[C@H](F)C[C@]43NC(=O)N(CC(=O)N(Cc4ccc(F)cc4)C4(C(F)(F)F)COC4)C3=O)c2C1` [Example 14, 2-[(1′S, 3′R)-3′-fluoro-5′-(5-methyl-4,5,6,7-tetrahydropyrazolo[1,5-a]pyrazin-3-yl)-2,5-dioxo-2′,3′-dihydrospiro[imidazolidine-4,1′-inden]-1-yl]-N-[(4-fluorophenyl)methyl]-N-[3-(trifluoromethyl)oxetan-3-yl]acetamide]: the figures for the IC50 in data set [1] and in data set [2] were 677 nM and 124 nM, respectively. In addition, the Papp at 4 h in data set [3] (setting [5]) stood at 26.1 ×10⁻⁶ cm/s; in data set [3] (setting [6]) it was 27.9 ×10⁻⁶ cm/s.

For `CN1CC(N(Cc2ccc(F)cc2)C(=O)CN2C(=O)N[C@]3(C[C@@H](F)c4cc(-c5cnn(C)c5)c(F)cc43)C2=O)(C(F)(F)F)C1` [Example 29, 2-[(1′S,3′R)-3′,6′-difluoro-5′-(1-methyl-1H-pyrazol-4-yl)-2,5-dioxo-2′,3′-dihydrospiro[imidazolidine-4,1′-inden]-1-yl]-N-[(4-fluorophenyl)methyl]-N-[1-methyl-3-(trifluoromethyl)azetidin-3-yl]acetamide], the IC50 was found to be 17 nM in data set [1] and 2.8 nM in data set [2]. The Papp at 4 h in data set [3] (setting [5]) came to 23.9 ×10⁻⁶ cm/s; in data set [3] (setting [6]), 28.3 ×10⁻⁶ cm/s.

As for `CN1CC(N(Cc2ccc(F)cc2)C(=O)CN2C(=O)N[C@]3(CCc4cc(-c5cnn(C)c5)ccc43)C2=O)(C(F)(F)F)C1` [Example 12, N-[(4-fluorophenyl)methyl]-2-[(1′S)-5′-(1-methyl-1H-pyrazol-4-yl)-2,5-dioxo-2′,3′-dihydrospiro[imidazolidine-4,1′-inden]-1-yl]-N-[1-methyl-3-(trifluoromethyl)azetidin-3-yl]acetamide], in data set [1], 82 nM corresponded to half-maximal inhibition (IC50). Also, the IC50 in data set [2] was 6.3 nM. The Papp at 4 h in data set [3] (setting [5]) is 24 ×10⁻⁶ cm/s. For the same compound, the Papp at 4 h in data set [3] (setting [6]) worked out at 28.9 ×10⁻⁶ cm/s. In data set [4] (intravenous, 1 mg/kg), the AUC turned out to be 465 ng·h/mL, the clearance came out at 35.7 mL/min/kg, the half-life was 0.97 h and the Vd turned out to be 1.6 L/kg. For the same compound, in data set [4] (oral, 10 mg/kg), the AUC came out at 1400 ng·h/mL, the Cmax came to 1290 ng/mL and the BA amounted to 30.0%.

Consider `CN(C)C1(Cn2cc(-c3ccc4c(c3)[C@H](F)C[C@]43NC(=O)N(CC(=O)N(Cc4ccc(F)cc4)C4(C(F)(F)F)COC4)C3=O)cn2)COC1` [Example 22, 2-[(1′S,3′R)-5′-(1-{[3-(dimethylamino)oxetan-3-yl]methyl}-1H-pyrazol-4-yl)-3′-fluoro-2,5-dioxo-2′,3′-dihydrospiro[imidazolidine-4,1′-inden]-1-yl]-N-[(4-fluorophenyl)methyl]-N-[3-(trifluoromethyl)oxetan-3-yl]acetamide], for which the IC50 stood at 68 nM in data set [1] and 11 nM in data set [2]. The Papp at 4 h stood at 21.2 ×10⁻⁶ cm/s in data set [3] (setting [5]) and 23 ×10⁻⁶ cm/s in data set [3] (setting [6]).

The compound `O=C1N[C@]2(C[C@@H](F)c3cc(-c4cnn(C5CN(C6COC6)C5)c4)ccc32)C(=O)N1CC(=O)N(Cc1ccc(F)cc1)C1(C(F)(F)F)CC(F)(F)C1` [Example 4, N-[3,3-difluoro-1-(trifluoromethyl)cyclobutyl]-2-[(1′S,3′R)-3′-fluoro-5′-{1-[1-(oxetan-3-yl)azetidin-3-yl]-1H-pyrazol-4-yl}-2,5-dioxo-2′,3′-dihydrospiro[imidazolidine-4,1′-inden]-1-yl]-N-[(4-fluorophenyl)methyl]acetamide] displayed an IC50 in data set [1] of 43 nM. The IC50 in data set [2] is 0.5 nM. In data set [3] (setting [5]), the Papp at 4 h turned out to be 25.7 ×10⁻⁶ cm/s. Besides, the Papp at 4 h in data set [3] (setting [6]) is 31.2 ×10⁻⁶ cm/s. Further, in data set [4] (intravenous, 1 mg/kg), the AUC came out at 2100 ng·h/mL, the clearance amounted to 6.8 mL/min/kg, the half-life is 2.3 h and the Vd amounted to 1.2 L/kg. Further, in data set [4] (oral, 10 mg/kg), the AUC worked out at 28700 ng·h/mL, the highest concentration (Cmax) amounted to 8300 ng/mL and the BA amounted to 136.3%.
